According to article PMC2567432 (PLoS ONE, 2008):

Assays:
[1] = tested on: 1321N1 cells; experiment: L-LDH release into cell supernatants; assay type: cell-based; conditions: 50 µM
Procedure: Tumor cells were cultured and treated as mentioned in Fig. 3. (A) LDH activity was measured in cell supernatants. (B) Cell vitality as assayed by the trypan blue exclusion test. Data represent the mean±S.D. of independent experiments (n = 6).
(§1) LDH activity was spectrophotometrically assayed in the cytosolic extract or in the of cell cultures by adding aliquots to 1 ml reaction buffer (50 mM Na2HPO4, pH 7.0, 0.15 mM NADH, and 0.3 mM pyruvate). Enzyme activity was recorded at 340 nm.

[2] = tested on: 1321N1 cells; experiment: Cell vitality by trypan blue exclusion; assay type: cell-based; conditions: 50 µM, 6-h incubation; control 95.6%±2.5%
[3] = target: T1, glyoxalase 1 (Glo1) (Homo sapiens, UniProt Q04760); experiment: Inhibition of purified glyoxalase 1 activity (Dixon plot); assay type: biochemical; conditions: Dixon plot / model fit
T1 construct: Glo1 was purified from human erythrocytes as described earlier; from tissue; host or cells: human erythrocytes
T1 sequence (Q04760 2-184 limits assumed): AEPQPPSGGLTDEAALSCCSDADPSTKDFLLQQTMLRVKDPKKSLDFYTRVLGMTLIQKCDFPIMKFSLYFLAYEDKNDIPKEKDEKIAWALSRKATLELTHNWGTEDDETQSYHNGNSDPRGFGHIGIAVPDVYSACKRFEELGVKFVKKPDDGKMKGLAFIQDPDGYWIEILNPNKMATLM
Procedure: Purified Glo1 (70 mU) was incubated with increasing concentrations of different polyphenols at three substrate concentrations; and enzyme activity was recorded (n = 3). The inhibitor concentration was plotted vs. the reciprocal of enzyme activity (1/v) in Dixon plots.
Glo1 was purified from human erythrocytes as described earlier. Briefly, erythrocytes were treated with butanol/chloroform to denature hemoglobin followed by acetone and ammonium sulphate fractionation.
The determination of Glo1 (E.C.4.4.1.5) activity has been described previously. […] The inhibition constant, Ki value of the inhibitors was evaluated by Dixon plot showing the reciprocal of enzyme velocity against the inhibitor concentration at variable concentrations of the substrate. Human Glo2 (E.C.3.1.2.6) was measured using the substrate S-lactoylglutathione as described earlier.
A goodness-of-fit criterion (Akaike's information criterion, AIC) was used for falsification of incompatible inhibition models. […] Spearman's rank correlation test was applied to evaluate the correlation between the IC50 values of pro-inflammatory cytokine release and the Ki-values of various polyphenols. Data were presented as means±S.D. of at least three independent experiments. […] In all other tests, significance has been considered at values of p<0.05.

[4] = tested on: 1321N1 cells; experiment: Glutathione (GSH) level in cytosolic extract, 1321N1; assay type: cell-based; conditions: 1321N1, 50 µM, 24 h
Procedure: Cells were harvested and GSH concentration was determined in the cytosolic extract. Data represent the mean±S.D. of independent experiments (n = 6).
GSH was determined using DTNB method. Briefly, cytosolic extract of tumor cells were precipitated by 5% sulfosalicylic acid neutralization, aliquots were mixed with DTNB and absorbance was read at 412 nm against a standard solution of GSH.

[5] = tested on: brain astrocytoma 1321N1 cells; experiment: Cell proliferation WST-1 assay, 1321N1; assay type: cell-based
Procedure: Figure 3 Growth inhibition of different tumor cell lines by polyphenols. […] Following 24-h incubation, cell proliferation was evaluated using the WST-1 assay.
Tumor cells were cultured in RPMI medium containing 10% fetal calf serum (RPMI-FCS) (PC-3, JIMT-1, MDA-MD 231) or in DMEM-FCS (astrocytoma 1321N1 cells) containing penicillin/streptomycin (100 U penicillin/ml; 100 µg streptomycin/ml) at 37°C/5% CO2. Cytosolic protein extracts of tumor cells were prepared using extraction buffer composed of 25 mM Tris, 2 mM EDTA, 10% Glycerol, 1% Triton ×100, 2 mM DTT, 1mM PMSF, pH. 7.0 containing 0.3% protease inhibitor cocktail. Protein content was determined according to Bradford. Specific activity of enzymes analyzed in cell extracts was expressed as U/mg protein.
Cell proliferation/vitality of tumor cells (96-well plates; 5000 cells/well) and primary human hepatocytes (24-well plates; 0.25×10^6 cells/well) was assayed using the WST-1 assay according to manufacturer's instructions. Trypan blue exclusion was performed by staining cells with 0.4% aqueous trypan blue solution according to the manufacturer's instructions.

[6] = tested on: LDH in JIMT-1 cells; experiment: LDH activity in cytosolic extract of treated cells; assay type: cell-based, human; conditions: JIMT-1, 24 h
Procedure: Cells were harvested and the specific activity of Glo1 and LDH was determined in the cytosolic extract. (B) Semi-quantitative analysis of protein content as performed by Western blot using specific antibodies against β-actin and Glo1. The blot was developed by chemoluminescense detection. […] Data represent the mean±S.D. of independent experiments (n = 6).
as §1

[7] = tested on: T2, Glo1 in JIMT-1 cells; experiment: Specific Glo1 activity in cytosolic extract of treated cells; assay type: cell-based, human; conditions: JIMT-1, 24 h
T2 construct: endogenous in cells; host or cells: JIMT-1 breast carcinoma cells (ACC 589; DSMZ)
Procedure: Cells were harvested and the specific activity of Glo1 and LDH was determined in the cytosolic extract. (B) Semi-quantitative analysis of protein content as performed by Western blot using specific antibodies against β-actin and Glo1. The blot was developed by chemoluminescense detection. […] Data represent the mean±S.D. of independent experiments (n = 6). Tumor cells were cultured in RPMI medium containing 10% fetal calf serum (RPMI-FCS) (PC-3, JIMT-1, MDA-MD 231) or in DMEM-FCS (astrocytoma 1321N1 cells) containing penicillin/streptomycin (100 U penicillin/ml; 100 µg streptomycin/ml) at 37°C/5% CO2. Cytosolic protein extracts of tumor cells were prepared using extraction buffer composed of 25 mM Tris, 2 mM EDTA, 10% Glycerol, 1% Triton ×100, 2 mM DTT, 1mM PMSF, pH. 7.0 containing 0.3% protease inhibitor cocktail. Protein content was determined according to Bradford. Specific activity of enzymes analyzed in cell extracts was expressed as U/mg protein. […] The inhibition constant, Ki value of the inhibitors was evaluated by Dixon plot showing the reciprocal of enzyme velocity against the inhibitor concentration at variable concentrations of the substrate. Human Glo2 (E.C.3.1.2.6) was measured using the substrate S-lactoylglutathione as described earlier.

[8] = tested on: JIMT-1 cells; experiment: Cellular ATP content (CellTiter-Glo), JIMT-1; assay type: cell-based, human; conditions: JIMT-1, 6 h; curcumin 0–100 µM, MGO 0–1000 µM
Procedure: Cellular ATP content was determined using the CellTiter-Glo® Luminescent Cell Viability Assay. Data represent the mean±S.D. of independent experiments (n = 12).
Cell ATP content was determined by means of the CellTiter-Glo® Luminescent Cell Viability Assay according to the manufacturer's instructions (Promega, Madison, USA). […] After 6-h incubation, cells were mixed with test reagents and luminescence was read according to the manufacturer's instructions. A standard curve was prepared from ATP (1 µM to 10 nM) in medium.

COc1cc(C=CC(=O)CC(=O)C=Cc2ccc(O)c(OC)c2)ccc1O [curcumin, 1,7-bis(4-hydroxy-3-methoxyphenyl)-1,6-heptadiene-3,5-dione]
L-LDH release ([1]; 6-h incubation): not significantly increased
LDH release ([1]; 24-h incubation): increased
percentage of vital cells (trypan blue exclusion) [2]: 89.5%±2.5%
mode of enzyme inhibition [3]: competitive
GSH diminished by [4]: approximately 20%
concentration giving strong anti-proliferative effects ([5]; 1321N1, 24 h, WST-1): above 50 µM
inhibition at 50 µM ([5]; Homo sapiens, 1321N1, 50 µM, 24 h): ~30%
LDH activity in cytosolic extract [6]: increased at higher curcumin concentrations
specific Glo1 activity in treated cells [7]: decreased dose-dependently
cellular ATP content [8]: decreased cellular ATP in a concentration-dependent manner
